Data as given in patent US7026357B2, “Diphenylurea compounds” (Les Laboratoires Servier, priority 2000, dated 2006).

Molecular target: T1, 5-HT2c receptors (Rattus norvegicus, UniProt P08909)
T1 construct: Male Wistar rats weighing from 120 to 140 g on the day of the experiment; from tissue; host or cells: whole animal (male Wistar rat), endogenous receptor
T1 sequence (P08909 33-460): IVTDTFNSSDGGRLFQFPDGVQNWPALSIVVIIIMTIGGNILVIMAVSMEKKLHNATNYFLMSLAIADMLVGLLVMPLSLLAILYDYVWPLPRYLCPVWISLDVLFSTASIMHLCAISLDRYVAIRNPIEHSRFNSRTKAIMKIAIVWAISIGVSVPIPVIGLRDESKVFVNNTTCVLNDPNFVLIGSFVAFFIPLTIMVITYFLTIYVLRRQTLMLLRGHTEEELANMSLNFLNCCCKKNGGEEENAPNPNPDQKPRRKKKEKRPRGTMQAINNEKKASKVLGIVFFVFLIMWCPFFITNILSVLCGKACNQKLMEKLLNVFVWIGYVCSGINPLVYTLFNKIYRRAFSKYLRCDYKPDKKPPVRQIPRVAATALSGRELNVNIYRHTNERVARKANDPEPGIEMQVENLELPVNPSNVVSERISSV
Assay: Penile erection test in the rat (erections induced by RO 60-0175)
Type: in vivo
Details: male Wistar rats; RO 60-0175 1.25 mg/kg s.c. 30 min after test compound; erections counted during 30 minutes
Protocol: The test allows the evaluation of the capacity of pharmacological agents to inhibit penile erections caused by the administration of a 5-HT2c selective agonist, RO 60-0175.
Male Wistar rats weighing from 120 to 140 g on the day of the experiment are placed individually into plexiglass observation boxes immediately after having been administered the test compound or the carrier. Thirty minutes later, the animals are administered RO 60-0175 (1.25 mg/kg, subcutaneous route) and the number of erections that occur during the 30 minutes that follow is counted.

SMILES	inhibitory dose 50 (ID50), inhibition of penile erections [mg/kg]
Cc1ccc(NC(=O)Nc2cccc(N3CCN(CC4COc5ccccc5O4)CC3)c2)cc1Cl.Cl (centres unmarked) [Example 6, N-(3-Chloro-4-methylphenyl)-N′-{3-[4-(2,3-dihydro-1,4-benzodioxin-2-ylmethyl)-1-piperazinyl]phenyl}urea hydrochloride]	0.7

Tested on: male CD-1 mice
Assay: Test in the mouse of aggressiveness induced by isolation
Type: in vivo
Details: isolated male CD-1 mice; subcutaneous administration; 30 minutes before test; three minutes observation
Text: The animals used are male CD-1 mice. On arrival, the mice are isolated in individual cages with free access to food and drink. After a period of isolation of one month, pairs of mice that are constant in their aggressiveness are selected by observation of the latent period, the number and the duration of attacks when they are placed in each other's presence. The test takes place once a week. On the day of the test, each mouse of the pair of mice (resident mouse and intruder mouse) is given a subcutaneous injection of carrier (control animals) or of test product (treated animals) in a volume of 10 ml/kg. After 30 minutes, the intruder mouse is introduced into the cage of the resident mouse. The latent period of the first attack and the number and duration of attacks are then measured for a period of three minutes. A product is considered as specifically anti-aggressive when it reduces the number and the duration of attacks at non-sedative doses.

SMILES	inhibitory dose 50 (ID50), number and duration of attacks [mg/kg]
Cc1ccc(NC(=O)Nc2cccc(N3CCN(CC4COc5ccccc5O4)CC3)c2)cc1Cl.Cl (centres unmarked) [Example 6, N-(3-Chloro-4-methylphenyl)-N′-{3-[4-(2,3-dihydro-1,4-benzodioxin-2-ylmethyl)-1-piperazinyl]phenyl}urea hydrochloride]	2.5

Tested on: Male NMRI mice
Assay: Marble-burying test in the mouse
Type: in vivo
Details: 0.5 h, 24 marbles, 30 minutes' free exploration, read-out: effective dose 50 (ED50), inhibition of marble-burying
Text: This test allows evaluation of the capacity of pharmacological agents to inhibit the spontaneous marble-burying behaviour in mice, the inhibition being predictive of antidepressant and/or anti-impulsive action. Male NMRI mice weighing from 20 to 25 g on the day of the experiment are placed individually in Macrolon boxes containing 5 cm of sawdust and covered with a perforated plexiglass plate. Twenty four “tiger's eye” glass marbles are evenly distributed on the sawdust at the periphery of the box. At the end of 30 minutes' free exploration, the animals are removed from the box and the number of buried marbles is counted.

SMILES	ED50 [mg/kg]
Cc1ccc(NC(=O)Nc2cccc(N3CCN(CC4COc5ccccc5O4)CC3)c2)cc1Cl.Cl (centres unmarked) [Example 6, N-(3-Chloro-4-methylphenyl)-N′-{3-[4-(2,3-dihydro-1,4-benzodioxin-2-ylmethyl)-1-piperazinyl]phenyl}urea hydrochloride]	0.4

Tested on: not given
Assay: not given
Details: not given

SMILES	melting point [°C]
Cl.Cl.O=C(Nc1cccc(N2CCN(CC3COc4ccccc4O3)CC2)c1)N1CCc2c1ccc1ccccc21 (centres unmarked)	194 to 196
Cc1ccc(NC(=O)Nc2cccc(C(C)(C)C3=NCCN3)c2)cc1Cl.Cl	232 to 233
Cc1ccc(NC(=O)Nc2ccc3c(c2)C(c2c[nH]cn2)CCO3)cc1Cl.Cl (centres unmarked)	> 260
Cc1ccc(NC(=O)Nc2cccc(CCc3c[nH]cn3)c2)cc1Cl.Cl	237 to 239
Cc1ccc(NC(=O)Nc2cccc(C(C)C3=NCCN3)c2)cc1Cl.Cl (centres unmarked)	100 to 102
Cc1ccc(NC(=O)Nc2ccc3c(c2)C(c2c[nH]cn2)CCC3)cc1Cl.Cl (centres unmarked)	255 to 257
Cc1ccc(NC(=O)Nc2cccc(CCC3=NCCN3)c2)cc1Cl.Cl	212 to 214
Cc1ccc(NC(=O)Nc2ccc3c(c2)CC(c2c[nH]cn2)C3)cc1Cl.Cl (centres unmarked)	235 to 237
COc1ccc(NC(=O)Nc2ccc(C)c(Cl)c2)cc1N1CCN(CC2COc3ccccc3O2)CC1.Cl (centres unmarked)	193 to 197
COc1ccc(NC(=O)Nc2ccc(C)c(C)c2)cc1N1CCN(CC2COc3ccccc3O2)CC1.Cl.Cl (centres unmarked)	234 to 236
Cc1ccc(NC(=O)Nc2cccc(N3CCN(CC4COc5ccccc5O4)CC3)c2)cc1C.Cl (centres unmarked)	228 to 230
Cc1ccc(NC(=O)Nc2ccc(Cl)c(NC3=NCCN3)c2)cc1Cl.Cl	255 to 257
Cc1ccc(NC(=O)Nc2cccc(CC3=NCCN3)c2)cc1Cl.Cl	227 to 229
CSc1ccc(NC(=O)Nc2ccc3c(c2)CC(c2c[nH]cn2)C3)cc1.Cl (centres unmarked)	243 to 245
Cc1ccc(NC(=O)Nc2ccc(C)c(NC3=NCCN3)c2)cc1Cl.Cl	252 to 254
Cc1ccc(NC(=O)Nc2cccc(N3CCN(CC4COc5ccccc5O4)CC3)c2)cc1Cl.Cl (centres unmarked) [Example 6, N-(3-Chloro-4-methylphenyl)-N′-{3-[4-(2,3-dihydro-1,4-benzodioxin-2-ylmethyl)-1-piperazinyl]phenyl}urea hydrochloride]	180 to 185
Cl.Cl.O=C(Nc1cccc(N2CCN(CC3COc4ccccc4O3)CC2)c1)N1CCc2cc(F)c(Cl)cc21 (centres unmarked)	202 to 204
Cl.O=C(Nc1cccc(N2CCN(CC3COc4ccccc4O3)CC2)c1)Nc1ccc(F)c(Cl)c1 (centres unmarked)	132 to 136
Cc1ccc(NC(=O)Nc2ccc3c(c2)CN(C2=NCCN2)CC3)cc1Cl.Cl	237 to 239
Cc1cc2c(cc1Cl)N(C(=O)Nc1ccc(N3CCN(CC4COc5ccccc5O4)CC3)cc1)CC2.Cl.Cl (centres unmarked)	174 to 176
Cc1ccc(NC(=O)Nc2ccc(C)c(N3CCN(C)CC3)c2)cc1Cl.Cl	229 to 231
COc1ccc(NC(=O)Nc2ccc(F)c(Cl)c2)cc1N1CCN(CC2COc3ccccc3O2)CC1.Cl (centres unmarked)	120 to 130
COc1ccc(NC(=O)Nc2ccc(C)c(Cl)c2)cc1N1CCN(C)CC1.Cl	206 to 208
Cc1ccc(NC(=O)Nc2cccc(NC3=NCCN3)c2)cc1Cl.Cl	180 to 185
Cc1ccc(NC(=O)Nc2ccc3c(c2)CC(c2c[nH]cn2)C3)cc1C.Cl (centres unmarked)	232 to 234
Cc1ccc(NC(=O)Nc2ccc3c(c2)CC(c2c[nH]cn2)CC3)cc1Cl.Cl (centres unmarked)	206 to 208
